Experimental data from US7635696B2, “Isoxazoline-indole derivatives with an improved antipsychotic and anxiolytic activity” (Janssen Pharmaceutica N.V., priority 2004, dated 2009).

Columns and labels:
human 5HT transporter = target: T1, human 5HT transporter (Homo sapiens, UniProt P31645); assay: Binding experiment for 5-HT transporter ([3H]Paroxetine); conditions: transfected HEK cell membranes, [3H]Paroxetine; for IC50: read-out: pIC50 5HTT (converted)
T1 construct: host or cells: HEK cells
Description: (§1) The interaction of the compounds of Formula (I) with dopamine-receptors, h5HT-transporter and h5HT1A receptor was assessed in in vitro radioligand binding experiments. In general, a low concentration of a radioligand with a high binding affinity for a particular receptor or transporter is incubated with a sample of a tissue preparation enriched in a particular receptor or transporter or with a preparation of cells expressing cloned human receptors in a buffered medium. During the incubation, the radioligand binds to the receptor or transporter. When equilibrium of binding is reached, the receptor bound radioactivity is separated from the non-bound radioactivity, and the receptor- or transporter-bound activity is counted. The interaction of the test compounds with the receptor is assessed in competition binding experiments. Various concentrations of the test compound are added to the incubation mixture containing the receptor- or transporter preparation and the radioligand. The test compound in proportion to its binding affinity and its concentration inhibits binding of the radioligand.
Frozen human 5HT transporter-transfected HEK cells (Perkin Elmer, Brussels) were thawed and briefly homogenised using an Ultra-Turrax T25 homogeniser prior to dilution to an appropriate protein concentration optimised for specific and non-specific binding. [^3H]Paroxetine (NEN, specific activity 20 Ci/mmol) was diluted in Tris-HCl assay buffer containing NaCl and KCl (50 mM, 120 mM and 5 mM, respectively; pH 7.4) at a concentration of 5 nmol/L. Prepared radioligand (25 μl) was then incubated (60 min, 25° C.) with membrane preparations (200 μl) and with 25 μl of either 10% DMSO control, Inipramine (10^−6 mol/L final concentration), or compound of interest. Membrane-bound activity was detected by filtration through a Packard Filtermate harvester onto Unifilterplates pre-soaked in 0.1% PEI, washing with ice-cold assay buffer (3×4 ml). Filters were dried prior to addition of scintillation fluid and then counting in a Topcount scintillation counter. % Specific bound and competition binding curves were calculated using S-Plus software (Insightful).

Human 5HT1A receptor = target: T2, Human 5HT1A receptor (Homo sapiens, UniProt P08908); assay: Binding experiment for 5-HT1A receptor ([3H]8OHDPAT); conditions: transfected L929 cell membranes, [3H]8OHDPAT; for IC50: read-out: pIC50 5-HT1A (converted)
T2 construct: expressed in transfected cells; host or cells: L929 cells (stably transfected)
T2 sequence (P08908 1-422): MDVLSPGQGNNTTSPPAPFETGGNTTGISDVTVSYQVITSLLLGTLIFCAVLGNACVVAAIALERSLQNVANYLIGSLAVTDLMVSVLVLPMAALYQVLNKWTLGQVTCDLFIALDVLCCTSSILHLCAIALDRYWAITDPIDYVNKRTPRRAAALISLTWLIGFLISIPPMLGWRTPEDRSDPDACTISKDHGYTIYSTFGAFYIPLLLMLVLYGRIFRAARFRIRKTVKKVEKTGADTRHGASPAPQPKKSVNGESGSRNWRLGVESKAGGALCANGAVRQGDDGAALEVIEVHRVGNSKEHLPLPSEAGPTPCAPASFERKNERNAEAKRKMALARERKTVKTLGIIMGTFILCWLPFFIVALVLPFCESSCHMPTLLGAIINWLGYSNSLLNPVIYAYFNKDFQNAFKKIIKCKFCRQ
Description: as §1
Human 5HT1A receptor-transfected L929 cells were collected by scraping into ice-cold Tris-HCl buffer (50 mM, pH 7.4). The suspension was centrifuged (23 500×g, 10 min, 4° C.) and pellets stored at −70° C. until required. They were then thawed and briefly homogenised using an Ultra-Turrax T25 homogeniser prior to dilution to an appropriate protein concentration optimised for specific and non-specific binding. [^3H]80HDPAT (NEN, specific activity 127 Ci/mmol) was diluted in Tris-HCl assay buffer containing CaCl2 (50 mM and 4 mM, respectively; pH 7.7) at a concentration of 5 nmol/L. Prepared radioligand (50 μl) was then incubated (30 min, 37° C.) with membrane preparations from L929 cells stably-transfected with the h5HT1A gene construct (400 μl) and with 50 μl of either the 10% DMSO control, spiroxatrine (10^−6 mol/L final concentration), or compound of interest. Membrane-bound activity was detected by filtration through a Packard Filtermate harvester onto Unifilterplates, washing with ice-cold Tris-HCl buffer (3×4 ml), followed by drying. Scintillation fluid was added and membranes were counted in a Topcount scintillation counter. % Specific bound and competition binding curves were calculated using S-Plus software (Insightful).

[1] = target: T3, Human Dopamine D2L receptor (Homo sapiens, UniProt P14416); assay: Binding experiment for dopamine D2 receptor ([3H]Spiperone); conditions: D2L-transfected CHO cell membranes; for IC50: read-out: pIC50 D2 (converted)
T3 construct: expressed in transfected cells; host or cells: CHO cells
T3 sequence (P14416 whole entry): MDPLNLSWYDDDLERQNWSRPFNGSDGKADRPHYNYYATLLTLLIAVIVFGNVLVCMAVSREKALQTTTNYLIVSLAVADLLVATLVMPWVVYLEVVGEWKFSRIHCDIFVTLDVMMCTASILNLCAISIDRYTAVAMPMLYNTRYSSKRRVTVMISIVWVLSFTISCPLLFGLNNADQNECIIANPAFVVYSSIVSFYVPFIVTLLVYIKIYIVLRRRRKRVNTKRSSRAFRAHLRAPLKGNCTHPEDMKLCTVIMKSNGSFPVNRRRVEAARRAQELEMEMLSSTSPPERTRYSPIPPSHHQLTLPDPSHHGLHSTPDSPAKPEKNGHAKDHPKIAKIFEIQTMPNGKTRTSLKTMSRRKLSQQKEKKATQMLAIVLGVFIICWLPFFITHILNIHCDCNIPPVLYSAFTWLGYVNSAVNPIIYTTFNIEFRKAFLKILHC
Description: as §1
Human Dopamine D2L receptor-transfected CHO cells were collected by scraping into ice-cold Tris-HCl buffer (50 mM, pH 7.4). The suspension was centrifuged (23 500×g, 10 min, 4° C.) and pellets stored at −70° C. until required. They were then thawed and briefly homogenised using an Ultra-Turrax T25 homogeniser prior to dilution to an appropriate protein concentration optimised for specific and non-specific binding. [^3H]Spiperone (NEN, specific activity ˜70 Ci/mmol) was diluted in Tris-HCl assay buffer containing NaCl, CaCl2, MgCl2, KCl (50, 120, 2, 1, and 5 mM respectively, adjusted to pH 7.7 with HCl) at a concentration of 2 nmol/L. Prepared radioligand (50 μl) was then incubated (30 min, 37° C.) with membrane preparations pre-diluted to an appropriate protein concentration (400 μl), and with 50 μl of either the 10% DMSO control, Butaclamol (10^−6 mol/L final concentration), or compound of interest. Membrane-bound activity was detected by filtration through a Packard Filtermate harvester onto Unifilterplates, washing with ice-cold Tris-HCl buffer (50 mM; pH8.0; 3×4 ml). Filters were allowed to dry before adding scintillation fluid and counting in a Topcount scintillation counter. % Specific bound and competition binding curves were calculated using S-Plus software (Insightful).

[2] = target: T4, Human Dopamine D3 receptor (Homo sapiens, UniProt P35462); assay: Binding experiment for dopamine D3 receptor ([125I]Iodosulpride); conditions: transfected CHO cell membranes; for IC50: read-out: pIC50 D3 (converted)
T4 construct: expressed in transfected cells; host or cells: CHO cells
T4 sequence (P35462 whole entry): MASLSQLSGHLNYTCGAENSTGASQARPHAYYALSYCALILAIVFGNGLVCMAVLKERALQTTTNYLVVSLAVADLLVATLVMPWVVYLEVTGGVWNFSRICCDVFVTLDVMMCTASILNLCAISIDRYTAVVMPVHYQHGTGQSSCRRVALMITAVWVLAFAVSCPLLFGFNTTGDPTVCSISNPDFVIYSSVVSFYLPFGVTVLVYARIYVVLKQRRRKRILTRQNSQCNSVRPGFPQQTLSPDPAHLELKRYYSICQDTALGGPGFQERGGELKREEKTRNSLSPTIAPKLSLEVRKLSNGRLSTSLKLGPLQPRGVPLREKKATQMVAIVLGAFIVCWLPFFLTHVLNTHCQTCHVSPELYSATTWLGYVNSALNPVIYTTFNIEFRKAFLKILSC
Description: as §1
Human Dopamine D3 receptor-transfected CHO cells were collected by scraping into ice-cold Tris-HCl buffer (50 mM, pH 7.4). The suspension was centrifuged (23 500×g, 10 min, 4° C.) and pellets stored at −70° C. until required. They were then thawed and briefly homogenised using an Ultra-Turrax T25 homogeniser prior to dilution to an appropriate protein concentration optimised for specific and non-specific binding. [^125I]Iodosulpride (Amersham, specific activity 2000 Ci/mmol) was diluted in Tris-HCl assay buffer containing NaCl, CaCl2, MgCl2, KCl and BSA (50, 120, 2, 1, 5 mM, 0.1% respectively, adjusted to pH 7.7 with HCl) at a concentration of 2 nmol/L. Prepared radioligand (20 μl) was incubated (60 min, RT) and with 20 μl of either the 10% DMSO control, Risperidone (10^−6 mol/L final concentration), or compound of interest, then with membrane preparations (80 μl). Overnight incubation followed after addition of WGA-coated PVT SPA beads (250 μl; Amersham) and membrane-bound counts measured in a Wallac Microbeta. % Specific bound and competition binding curves were calculated using S-Plus software (Insightful).

T1 sequence (P31645 whole entry): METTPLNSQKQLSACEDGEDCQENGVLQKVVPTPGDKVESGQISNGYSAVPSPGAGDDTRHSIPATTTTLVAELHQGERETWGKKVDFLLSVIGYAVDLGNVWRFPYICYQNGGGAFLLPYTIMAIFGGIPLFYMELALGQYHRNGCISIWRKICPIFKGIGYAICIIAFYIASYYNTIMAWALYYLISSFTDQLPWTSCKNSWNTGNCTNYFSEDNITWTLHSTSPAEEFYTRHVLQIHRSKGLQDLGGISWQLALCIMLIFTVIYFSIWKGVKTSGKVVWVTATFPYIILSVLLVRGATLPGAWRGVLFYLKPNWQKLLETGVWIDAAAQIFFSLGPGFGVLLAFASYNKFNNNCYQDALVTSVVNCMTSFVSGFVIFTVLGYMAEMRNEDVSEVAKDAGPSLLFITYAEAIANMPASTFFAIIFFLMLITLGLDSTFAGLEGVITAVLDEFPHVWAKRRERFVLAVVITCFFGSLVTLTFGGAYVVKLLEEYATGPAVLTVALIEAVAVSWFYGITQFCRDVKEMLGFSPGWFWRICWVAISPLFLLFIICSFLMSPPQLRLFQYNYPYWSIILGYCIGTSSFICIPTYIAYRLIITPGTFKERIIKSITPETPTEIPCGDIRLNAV

Row | SMILES | pIC50 5HTT (human 5HT transporter) | pIC50 5-HT1A (Human 5HT1A receptor) | pIC50 D2 [1] | pIC50 D3 [2] | IC50 (human 5HT transporter) [nM] | IC50 (Human 5HT1A receptor) [nM] | IC50 [1] [nM] | IC50 [2] [nM]
1 | COc1cc2c(cc1OC)C1=NOC(CN3CC=C(c4c[nH]c5ccc(F)cc45)CC3)C1CO2 (single isomer, unassigned) [Compound 3] | 7.4 | 6.8 | 6.0 | 7.0 | – | – | – | –
2 | COc1cc2c(cc1OC)C1=NOC(CN3CCC(c4c[nH]c5ccc(C#N)cc45)CC3)C1CO2 (racemic) [Compound 24] | 7.4 | 8.7 | 6.4 | 6.9 | – | – | – | –
3 | COc1cc2c(cc1OC)C1=NOC(CN3CC=C(c4c[nH]c5ccc(Cl)cc45)CC3)C1CO2 (racemic) [Compound 25] | 7.1 | 8.3 | 6.6 | 6.9 | – | – | – | –
4 | COc1cc2c(cc1OC)C1=NOC(CN3CC=C(c4c[nH]c5ccc(-c6ccccc6)cc45)CC3)C1CO2 (racemic) [Compound 22] | – | – | – | – | 2510 | 25.1 | 3980 | 3160
5 | Fc1ccc2[nH]cc(C3CCN(CC4ON=C5c6cc7c(cc6OCC54)OCCO7)CC3)c2c1 (single isomer, unassigned) [Compound 29] | 6.9 | 8.8 | 6.6 | 6.5 | – | – | – | –
6 | Fc1ccc2[nH]cc(C3=CCN(CC4ON=C5c6cc7c(cc6OCC54)OCCO7)CC3)c2c1 (single isomer, unassigned) [Compound 28] | 7.8 | 8.6 | 6.3 | 6.2 | – | – | – | –
7 | COc1cc2c(cc1OC)C1=NOC(CNCCCc3c[nH]c4ccc(F)cc34)C1CO2 (single isomer, unassigned) [Compound 5] | 7.2 | >9 | 6.6 | 7.0 | – | – | – | –
8 | COc1cc2c(cc1OC)C1=NOC(CNCCCc3c[nH]c4ccc(F)cc34)C1CO2 (single isomer, unassigned) [Compound 4] | 7.8 | 8.6 | 6.1 | 6.7 | – | – | – | –
9 | COc1cc2c(cc1OC)C1=NOC(CN3CCC(c4c[nH]c5ccc(C)cc45)CC3)C1CO2 (racemic) [Compound 31] | – | – | – | – | 200 | 3.16 | 398 | 398
10 | COc1cc2c(cc1OC)C1=NOC(CN3CCC(c4c[nH]c5ccc(F)cc45)CC3)C1CO2 (single isomer, unassigned) [Compound 15] | 7.1 | 7.2 | 6.1 | 6.4 | – | – | – | –
11 | COc1cc2c(cc1OC)C1=NOC(CN3CCC(c4c[nH]c5ccc(F)cc45)CC3)C1CO2 (single isomer, unassigned) [Compound 11] | 6.9 | 8.9 | 7.2 | 7.2 | – | – | – | –
